Laboratory results published in US20070141141A1, “Pharmaceutical composition” (ASTRAZENECA AB, priority 2003, published 2007).
Blank lines part the entries; values can stand above or below the compound they belong to.

Experiments:
[1] = tested on: non-small-cell lung cancer; details: 250 mg/day, non-small-cell lung cancer patients, IDEAL 1 and 2; cited from earlier work
[2] = pKa and pH dependent aqueous solubility of the Agent; format: physicochemical
[3] = pH shift dissolution test (pH 1.5 to 6.5); format: physicochemical; details: for % Agent in Solution t = 2 mins: 2 minutes after adjustment of medium from pH 1.5 to pH 6.5, 37° C.; for % Agent in Solution t = 30 mins: 30 minutes after adjustment of medium from pH 1.5 to pH 6.5, 37° C.; for % Agent in Solution t = 60 mins: 60 minutes after adjustment of medium from pH 1.5 to pH 6.5, 37° C.; for % Agent in Solution t = 0 (˜pH 1.5): % by weight dissolved after 60 minutes in 0.07N HCl/0.2% NaCl medium, 37° C., before pH shift, >100% from HPLC experimental error; for Mean pH of medium at 60 minutes after pH adjustment (n = 2): pH shift test, 60 minutes after adjustment from pH 1.5 to pH 6.5
Experimental: The vial was then rinsed with a further 50 ml of fresh dissolution medium and the washings added to the main dissolution medium to ensure complete transfer of the composition (total volume of medium 500 ml). The Control sample was weighed into a volumetric flask and pre-dissolved in 50 ml of dissolution medium via sonication. The composition was then added to 400 ml of dissolution medium. The flask was rinsed with a further 50 ml of fresh dissolution medium and the washings added to the main dissolution medium to ensure complete transfer of the composition (total volume of medium=500 ml). After 60 minutes at 37° C. (paddle speed 100 rpm) a sample (5 ml) was taken and 5 ml of fresh medium was added to retain a constant volume of dissolution medium.
The resulting solution was then made up to 100 ml with MilliQ water.
Samples (5 ml) were then removed with a plastic syringe at 2, 5, 15, 30, 45 and 60 minutes after pH adjustment and fresh medium (pH 6.5) added to maintain a constant volume of dissolution medium. […] ODS-3^1. (with guard) • detection wavelength: 247 nm • flow rate: 0.9 ml/min • injection volume: 20 μl • retention time: approximately 6 minutes
Footnote: column ex Hichrom containing 3 μm beads.

pH 6.5 dissolution test = format: physicochemical; details: for % Agent in solution after 5 minutes in pH 6.5 medium / % Agent in solution after 30 minutes in pH 6.5 medium / % Agent in solution after 60 minutes in pH 6.5 medium: 37° C., 500 ml, 250 mg Agent; for Mean pH of medium at 60 minutes (n = 2) / Mean pH of medium at end of experiment (n = 2): pH 6.5 dissolution test; for Mean pH of medium at end of experiment (n = 2): final pH measured after 60 minutes
Experimental: The following test measures dissolution of a composition in a pH 6.5 dissolution medium and simulates the pH environment found in the upper intestine.
The composition to be tested was placed into a 500 ml of a stirred dissolution medium at pH 6.5 at 37° C. (paddle speed 100 rpm). […] A fresh sample of dissolution medium was added after every sampling time point to maintain a constant volume of 500 ml dissolution medium throughout the test.
The vial was then rinsed with a further 50 ml of fresh dissolution medium and the washings added to the main dissolution medium to ensure complete transfer of the composition (total volume of dissolution medium=500 ml).

Solubility (in words) ([2]; free-base form, above pH 7): practically insoluble
Solubility (in words) ([2]; free-base form, pH 1): soluble
Solubility: aqueous solvent required to dissolve 1 g of Agent ([2]; free-base form, pH 6): ≥ 10000 mL
pKa ([2]; two basic groups): ~5.3
% Agent in Solution t = 2 mins ([3]; listed as Control): 6.50%
% Agent in Solution t = 30 mins ([3]; listed as Control): 3.04%
% Agent in Solution t = 60 mins ([3]; listed as Control): 2.27%
% Agent in Solution t = 0 (˜pH 1.5) ([3]; listed as Control): 102.61%
Mean pH of medium at 60 minutes after pH adjustment (n = 2) ([3]; listed as Control): 6.55
% Agent in solution after 5 minutes in pH 6.5 medium (pH 6.5 dissolution test; listed as Control): 0.70%
% Agent in solution after 30 minutes in pH 6.5 medium (pH 6.5 dissolution test; listed as Control): 1.52%
% Agent in solution after 60 minutes in pH 6.5 medium (pH 6.5 dissolution test; listed as Control): 1.40%
Mean pH of medium at 60 minutes (n = 2) (pH 6.5 dissolution test; listed as Control): 6.52
Mean pH of medium at end of experiment (n = 2) (pH 6.5 dissolution test; listed as Control): 6.52
SMILES: COc1cc2ncnc(Nc3ccc(F)c(Cl)c3)c2cc1OCCCN1CCOCC1 [Agent, 4-(3′-chloro4′-fluoroanilino)-7-methoxy-6-(3-morpholinopropoxy)quinazoline]
adverse events [1]: majority of adverse events generally being mild to moderate skin and gastrointestinal disorders
response rates [1]: 11.8-18.4%

% Agent in Solution t = 2 mins [3]: 19.56%
% Agent in Solution t = 30 mins [3]: 5.16%
% Agent in Solution t = 60 mins [3]: 3.30%
% Agent in Solution t = 0 (˜pH 1.5) [3]: 97.74%
Mean pH of medium at 60 minutes after pH adjustment (n = 2) [3]: 6.32
% Agent in solution after 5 minutes in pH 6.5 medium (pH 6.5 dissolution test): 3.52%
% Agent in solution after 30 minutes in pH 6.5 medium (pH 6.5 dissolution test): 1.54%
% Agent in solution after 60 minutes in pH 6.5 medium (pH 6.5 dissolution test): 1.21%
% Agent in solution after 60 minutes in pH 6.5 medium (pH 6.5 dissolution test; listed as Comparative Example 4): 1.21%
Mean pH of medium at 60 minutes (n = 2) (pH 6.5 dissolution test): 6.33
Mean pH of medium at end of experiment (n = 2) (pH 6.5 dissolution test): 6.33
SMILES: COc1cc2ncnc(Nc3ccc(F)c(Cl)c3)c2cc1OCCCN1CCOCC1 [Comparative 4, 4-(3′-chloro4′-fluoroanilino)-7-methoxy-6-(3-morpholinopropoxy)quinazoline]
